The values that follow come from paper PMC6193555 (Nutrition and cancer, 2017).

The target in assay [1] is c-Met (Homo sapiens, UniProt P08581). Put plainly: Z'-LYTE cell-free kinase assay, positive control. In kind it is biochemical.
For assay [2], the target named is c-Met (M1250T) (Homo sapiens, UniProt P08581, M1250T). Put plainly: Z'-LYTE cell-free kinase assay. The format is biochemical.

SMILES strings stand for the structures.

Chain of c-Met (P08581 25-307): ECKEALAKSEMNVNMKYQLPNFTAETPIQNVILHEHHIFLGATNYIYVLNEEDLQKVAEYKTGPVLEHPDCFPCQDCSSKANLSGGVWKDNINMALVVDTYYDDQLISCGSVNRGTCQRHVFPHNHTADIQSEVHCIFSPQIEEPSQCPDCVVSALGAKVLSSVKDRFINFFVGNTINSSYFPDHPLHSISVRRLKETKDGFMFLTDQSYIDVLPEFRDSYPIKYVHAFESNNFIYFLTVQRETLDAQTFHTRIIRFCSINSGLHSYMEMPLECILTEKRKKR
Chain of c-Met (P08581 308-1390): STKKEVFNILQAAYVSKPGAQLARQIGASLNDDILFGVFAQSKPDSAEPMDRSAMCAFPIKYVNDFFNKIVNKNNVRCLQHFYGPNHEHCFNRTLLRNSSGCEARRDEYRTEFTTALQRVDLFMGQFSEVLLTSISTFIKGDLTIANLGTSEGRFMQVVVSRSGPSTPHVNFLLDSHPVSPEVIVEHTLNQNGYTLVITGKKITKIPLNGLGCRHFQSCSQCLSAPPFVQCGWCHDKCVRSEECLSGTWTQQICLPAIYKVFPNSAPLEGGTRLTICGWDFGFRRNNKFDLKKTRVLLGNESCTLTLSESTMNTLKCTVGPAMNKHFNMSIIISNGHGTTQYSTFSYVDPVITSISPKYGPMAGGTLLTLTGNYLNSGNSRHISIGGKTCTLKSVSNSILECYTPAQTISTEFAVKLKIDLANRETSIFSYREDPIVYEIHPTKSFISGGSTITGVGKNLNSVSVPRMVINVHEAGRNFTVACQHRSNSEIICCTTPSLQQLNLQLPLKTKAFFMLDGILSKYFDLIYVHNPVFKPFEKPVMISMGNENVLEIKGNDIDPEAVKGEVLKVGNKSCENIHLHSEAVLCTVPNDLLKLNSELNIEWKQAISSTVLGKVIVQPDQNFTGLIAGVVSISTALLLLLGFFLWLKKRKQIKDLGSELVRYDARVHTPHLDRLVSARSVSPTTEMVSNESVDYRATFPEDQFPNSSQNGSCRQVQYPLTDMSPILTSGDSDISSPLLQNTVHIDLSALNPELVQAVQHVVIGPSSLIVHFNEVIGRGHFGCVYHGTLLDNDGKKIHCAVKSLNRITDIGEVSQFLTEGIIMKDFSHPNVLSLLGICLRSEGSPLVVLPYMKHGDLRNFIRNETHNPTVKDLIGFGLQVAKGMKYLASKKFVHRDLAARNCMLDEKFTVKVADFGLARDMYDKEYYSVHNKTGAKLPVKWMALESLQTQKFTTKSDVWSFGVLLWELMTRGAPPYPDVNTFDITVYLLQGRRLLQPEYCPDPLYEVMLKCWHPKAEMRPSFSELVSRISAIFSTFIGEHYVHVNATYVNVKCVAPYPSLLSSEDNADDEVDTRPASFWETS
Chain of c-Met (M1250T) (P08581 956-1390 M1250T limits assumed): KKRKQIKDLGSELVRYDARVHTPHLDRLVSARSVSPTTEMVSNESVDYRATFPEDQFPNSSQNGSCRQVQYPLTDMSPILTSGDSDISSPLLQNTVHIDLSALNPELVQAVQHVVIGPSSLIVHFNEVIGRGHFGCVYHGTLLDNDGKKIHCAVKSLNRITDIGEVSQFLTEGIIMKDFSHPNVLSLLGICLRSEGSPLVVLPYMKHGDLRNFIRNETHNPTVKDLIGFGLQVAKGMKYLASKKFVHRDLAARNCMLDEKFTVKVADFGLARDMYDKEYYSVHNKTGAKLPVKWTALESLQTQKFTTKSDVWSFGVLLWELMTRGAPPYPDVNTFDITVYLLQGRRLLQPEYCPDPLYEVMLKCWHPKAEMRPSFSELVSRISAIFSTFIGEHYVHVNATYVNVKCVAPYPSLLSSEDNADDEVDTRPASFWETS

Consider `C/C=C(/C=O)[C@@H](CC=O)CC(=O)OCCc1ccc(O)cc1` [(–)-oleocanthal], for which the “Z'-LYTE cell-free kinase assay, positive control” value in assay [1] is recorded as “(–)-oleocanthal was utilized as a positive control in Z'-LYTE cell free assay as a documented c-Met inhibitory phenolic”. In general, IC50 refers to the concentration that inhibits the measured activity by half. The low end stands for higher potency, the high end for lower potency. In assay [2], `C[C@@H]1O[C@@H](OC[C@H]2O[C@@H](Oc3c(-c4ccc(O)c(O)c4)oc4cc(O)cc(O)c4c3=O)[C@H](O)[C@@H](O)[C@@H]2O)[C@H](O)[C@H](O)[C@H]1O` [compound 6, quercetin 3-O-[α-L-^1C4-rhamnopyranosyl 1'”→6” β-D-^4C1-glucopyranoside]] gave an IC50 of 8.5 µM. This counts as single-digit micromolar.
